Results: patent US9040035B2, “Treatment of pain using placental stem cells” (ANTHROGENESIS CORPORATION, priority 2011, dated 2015)

What was measured:
[1] = test system: Sciatic nerve chronic constriction injury; test: Sciatic nerve chronic constriction injury (CCI) in rats, tactile allodynia test; format: in vivo, rat; conditions: 100 mg/ml, 0.25 ml IP; days 10, 16, 25 and 30
Excerpt: (§1) Seventy seven male Sprague Dawley rats, 3 months old, approximately 200-250 g at study initiation were included in the study. Minimum and maximum weights of the group were within a range of ±20% of group mean weight. Following several days of habituation the rats underwent baseline measurements for pain behavior (tactile-allodynia) and motor sensory assessment (rotarod test). All the rats underwent Sciatic nerve chronic constriction injury (CCI); pain development was verified on the 6th day following the operation and sensory motor behavior on the 7th. On the 8th day following the procedure the rats were assigned randomly to the various treatment groups (Table 5). Pain levels were assessed on the 6th, 10th, 16th, 25th and 30th days following the procedure. Motor sensory coordination was assessed on the 11th, 21st, 26th and 34th days. […]
Pain level was evaluated using a Tactile allodynia test. In this test, the withdrawal response to calibrated Von Frey fibers is measured. […] Each fiber was applied to the paw five times and a percentage score of responses was calculated (see Flatters et al., Pain, 2004, 109:150-161). […]
(§2) Data were tabulated and analyzed using StatView software version 5.0 (SAS Institute Inc., San Francisco, Calif., USA). […] Behavioral statistics were calculated only for rats with data at all time points. […]

[2] = test system: motor sensory coordination; test: Sciatic nerve chronic constriction injury (CCI) in rats, Rotarod test; format: in vivo, rat; conditions: 100 mg/ml, 0.25 ml IP
Excerpt: as §1, with “days. On the 35th day the rats were euthanized, the sciatic nerves (both sides) were collected and embedded in paraffin.” for “days.”
Motor sensory coordination was evaluated with the Rotarod Test. […] The rodent's ability to remain on the rotating rod is recorded (time in seconds). […]
as §2

SMILES: NCC1(CC(=O)O)CCCCC1 [gabapentin]
- pain (responses to 26 g stimuli) compared to day 6 [1]: significantly reduced the pain
- time spent on the rotarod (motor sensory coordination) [2]: significant reduction in the time spent on the rotarod
